Experimental data reported in BindingDB's records for patent US20240246937 (Merck Sharp & Dohme, 2024).

Target: T1, L-amino-acid oxidase (Homo sapiens, UniProt Q96RQ9)
T1 sequence (Q96RQ9 whole entry): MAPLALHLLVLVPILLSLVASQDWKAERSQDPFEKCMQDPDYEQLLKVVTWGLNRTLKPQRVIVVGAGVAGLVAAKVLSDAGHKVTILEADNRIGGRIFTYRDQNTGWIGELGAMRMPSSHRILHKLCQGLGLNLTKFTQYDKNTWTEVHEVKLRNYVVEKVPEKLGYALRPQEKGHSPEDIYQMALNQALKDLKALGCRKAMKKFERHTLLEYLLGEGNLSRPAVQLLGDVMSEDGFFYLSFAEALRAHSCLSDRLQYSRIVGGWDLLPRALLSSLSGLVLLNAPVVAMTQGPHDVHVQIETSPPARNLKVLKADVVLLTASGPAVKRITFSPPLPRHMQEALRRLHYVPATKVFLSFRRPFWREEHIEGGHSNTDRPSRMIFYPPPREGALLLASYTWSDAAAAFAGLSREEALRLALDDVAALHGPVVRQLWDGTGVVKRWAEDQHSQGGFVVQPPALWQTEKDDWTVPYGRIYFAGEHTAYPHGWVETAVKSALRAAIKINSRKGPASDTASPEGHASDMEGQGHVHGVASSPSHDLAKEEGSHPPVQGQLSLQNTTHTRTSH
Experiment: IL4I1 Enzymatic Assay
Method: Using this assay, the potency (EC50) of each compound was determined from a ten-point (1:3 serial dilution) titration curve using the following outlined procedure. To each well of a black flat-bottom Greiner (Cat #781076) 384 well-plate, 25 nL of compound (0.1% DMSO in final assay volume of 25 μL) was dispensed, followed by the addition of 12.5 μL of 1× assay buffer (50 mM Hepes 7.0 and 0.005% Tween20 (Sigma, Cat #P8341; low peroxide grade)) containing 2 nM of recombinant IL4I1 (R&D Systems, Cat #5684-AO-020). Plates were placed in an ambient temperature humidified chamber for a four-hour pre-incubation with compound. Subsequently, each reaction was initiated by the addition of 12.5 μL 1× assay buffer containing 2 mM of each aromatic amino acids (Phe/Tyr/Trp), 0.1 mM Amplex Red and 2 U/mL of HRP. The final reaction in each well of 25 μL consisted of 1 nM of IL4I1, 1 mM of each residues (Phe, Tyr and Trp), 0.05 mM Amplex Red and 1 U/mL of HRP. It should be noted that the concentrations of Amplex Red and HRP used here were in excess such that the conversion of H2O2 to resorufin product occurred

Compound: CC1CC(N2CCN(Cc3nnc(-c4ccccc4)s3)C(=O)C2=O)C1 (stereo unspecified) [US20240246937, Example 289]
- EC50: 6 nM
